In patent publication US9453242B2, “Method and culture medium for preparing mammalian ovum or embryo in which zona pellucida has been thinned or eliminated, and method for fertilization using mammalian ovum prepared by same method” (NATIONAL UNIVERISTY CORPORATION KUMAMOTO UNIVERSITY, priority 2010, dated 2016):

Legend:
[1] = tested on: zona pellucida of a mouse unfertilized ovum; assay: Swelling of zona pellucida (area in zona pellucida) of unfertilized ovum; type: cell-based; details: reducing agents other than glutathione; FIG. 10, FIG. 11 (DTT 0.5, ascorbic acid 5, epicatechin 1 mM)
Experimental: Further, the influence of glutathione on swelling of zona pellucida was confirmed. […] Preparation of ovum” were treated with HTF culture media containing glutathione at various concentration at 37° C. for 6 hours, then, the area in zona pellucida was photographed under a microscope and measured by an image analysis software. The conditions of zona pellucida at glutathione concentrations of 0 mM, 1 mM, 2 mM and 10 mM were observed by an invert microscope.
The influence of other reducing agents (DTT, ascorbic acid (VC) and epicatechin (EC)) exerted on thinning and swelling of zona pellucida was confirmed in the same manner as in Example 2. The extent of swelling of the zona pellucida of an unfertilized ovum by the concentration of each reducing agent was photographed under a microscope, and determined according to the following formula. % Relative area in ZP=(area of zona pellucida in each experiment/area of zona pellucida at 0 mM)×100

[2] = tested on: frozen sperms of C57BL/6J mice; assay: In vitro fertilization after sperm pre-incubation with MBCD and/or glutathione; type: cell-based, mouse
Experimental: A sperm suspension is pre-incubated in 90 μl of a TYH culture medium at 37° C. for 30 minutes, and under a stereomicroscope, sperms showing motility are collected, avoiding nonmotile sperms, and used for fertilization. The pre-incubated sperm suspension (10 μl) is added to 90 μl of an HTF culture medium (±glutathione) into which cumulus-oocyte complexes (COCs) have been previously introduced (insemination), and these are co-incubated in an incubator for 5 to 6 hours (37° C., 5% CO2), thereby performing fertilization. Thereafter, the ovum is washed with drops of new HTF, and the ovum is observed. Those judged to parthenogenetic (only one pronucleus is recognized in ooplasm) are excluded, and on the following day (24 hours after insemination), only 2-cell stage embryos are selected, and fertilization rate is determined according to the following formula. In vitro fertilization rate (%)=(number of 2-cell stage embryo)/(number of 2-cell stage embryo+number of unfertilized ovum)×100
The TYH culture medium used for pre-incubation of sperms was prepared according to the above-described composition excepting that polyvinyl alcohol (1.0 mg/ml, available from SIGMA) was used instead of bovine serum albumin, and methyl-β-cyclodextrin (0.75 mM, available from SIGMA) was added. Further, the concentration of glutathione in the TYH culture medium was 1 mM, preparation was carried out in the same manner as in Example 1, and glutathione was added to the TYH culture medium directly before use. The influence on fertilization rate was compared among those containing methyl-β-cyclodextrin, those containing glutathione and those containing both compounds.
Fertilization was conducted with 90 μl of an HTF culture medium (in the case of addition of glutathione, the concentration was 1 mM) containing cumulus-oocyte complexes (COCs), in the same manner as in Example 1 (IVF/glutathione in table). As the sperm, frozen sperms of C57BL/6J mice were used, and processed according to FIG. 1. Thawed sperms were pre-incubated in a TYH culture medium (±glutathione, ±methyl-β-cyclodextrin) at 37° C. for 30 minutes, and sperms showing motility were collected and used for fertilization. The experiment was conducted five times.

Compound	thinning and swelling of zona pellucida [1]	number of 2-cell stage embryo(%) ([2]; sperm pre-incubation MBCD + (0.75 mM), glutathione −, IVF glutathione −)	number of 2-cell stage embryo ([2]; sperm pre-incubation MBCD + (0.75 mM), glutathione −, IVF glutathione −, 323 oocytes)	effect of sperm pre-incubation on fertilization rate ([2]; sperms pre-incubated with 1 mM glutathione or 0.75 mM MBCD, 37° C., 30 minutes)
O=C1O[C@H]([C@@H](O)CO)C(O)=C1O [ascorbic acid]	thinning or swelling of zona pellucida did not occur	–	–	–
O[C@@H](CS)[C@@H](O)CS [DTT]	thinning and swelling of zona pellucida by treatment with DTT were confirmed	–	–	–
methyl-β-cyclodextrin [MBCD]	–	65	210	fertilization rate was improved
